Reference: patent US6472348B1, “Pyridone derivatives and herbicides” (Kumiai Chemical Industry Co., Ltd., priority 1996, dated 2002)

Tests used:
[1] = system: barnyardgrass (Ec); experiment: Test Example 3: herbicidal effects by upland field foliage treatment; assay type: in vivo; set-up: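 grade of growth control; 5 = at least 90%; 4 = 70 to 90%; 3 = 50 to 70%; 2 = 30 to 50%; 1 = 10 to 30%; 0 = under 10%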; conditions: 100 g of the active ingredient per 10 ares, evaluated on the 14th day after treatment
Outline: (§1)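 Weeds sown in sand-filled pots and grown 2 weeks in a greenhouse before foliage treatment. Plants then kept in the greenhouse; herbicidal effect scored on day 14 after treatment against a graded standard scale.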

[2] = system: Diaitaria ciliaris (Di); experiment: as above; assay type: in vivo; set-up: scale not given here; conditions: 100 g of the active ingredient per 10 ares, evaluated on the 14th day after treatment
Outline: as §1

[3] = system: rice flatsedge (Ci); experiment: as above; assay type: in vivo; set-up: scale not given here; conditions: 100 g of the active ingredient per 10 ares, evaluated on the 14th day after treatment
Outline: as §1

[4] = system: pale smartweed (Po); experiment: as above; assay type: in vivo; set-up: scale not given here; conditions: 100 g of the active ingredient per 10 ares, evaluated on the 14th day after treatment
Outline: as §1

[5] = system: common lambsquarters (Ch); experiment: as above; assay type: in vivo; set-up: scale not given here; conditions: 100 g of the active ingredient per 10 ares, evaluated on the 14th day after treatment
Outline: as §1

[6] = system: slender amaranth (Am); experiment: as above; assay type: in vivo; set-up: scale not given here; conditions: 100 g of the active ingredient per 10 ares, evaluated on the 14th day after treatment
Outline: as §1

[7] = system: monochoria (Mo); experiment: Test Example 1: herbicidal effects by paddy field soil treatment; assay type: in vivo; conditions: 100 g of the active ingredient per 10 ares, 21st day after the application, index 0-5 of Table 47;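 also: grade of growth control; 5 = at least 90%; 4 = 70 to 90%; 3 = 50 to 70%; 2 = 30 to 50%; 1 = 10 to 30%; 0 = under 10%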
Outline: (§2)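 Scoring of herbicidal effect came 21 days after application of 100 g active ingredient per 10 ares to flooded (3 cm) paddy-soil pots sown with barnyardgrass, monochoria and bulrush, kept in a greenhouse.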

[8] = system: barnyardgrass (Ec); experiment: as above; assay type: in vivo; conditions: 100 g of the active ingredient per 10 ares, 21st day after the application, index 0-5 of Table 47
Outline: as §2

[9] = system: bulrush (Sc); experiment: as above; assay type: in vivo; conditions: 100 g of the active ingredient per 10 ares, 21st day after the application, index 0-5 of Table 47;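 also: grade of growth control; 5 = at least 90%; 4 = 70 to 90%; 3 = 50 to 70%; 2 = 30 to 50%; 1 = 10 to 30%; 0 = under 10%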
Outline: as §2

[10] = system: corn (Ze); experiment: Test Example 11: crop plant selectivity by upland field foliage treatment (corn), phytotoxicity; conditions: upland field foliage treatment, dose 1.6 g ai/10a, 14th day after treatment
Protocol: (§3) (Test on Crop Plant Selectivity by Upland Field Foliage Treatment)
(§4) In a plastic pot (surface area: 600 cm^2) filled with sand, corn (Ze), pale smartweed (Po), slender amaranth (Am), common lambsquarters (Ch) and China jute (Ab) were sown and cultured in a green house for 2 weeks. […] The plants were then cultured in a green house, and the evaluation of the herbicidal effects and phytotoxicity was conducted on the 14th day after the treatment in accordance with the standards as identified in Table 47.

[11] = system: pale smartweed (Po); experiment: Test Example 11: crop plant selectivity by upland field foliage treatment (corn), herbicidal effects; assay type: in vivo; set-up: scale not given here; conditions: upland field foliage treatment (corn test), dose 1.6 g ai/10a, 14th day after treatment
Protocol: as §3, §4

[12] = system: China jute (Ab); experiment: as above; assay type: in vivo; set-up: scale not given here; conditions: upland field foliage treatment (corn test), dose 1.6 g ai/10a, 14th day after treatment
Protocol: as §3, §4

[13] = system: common lambsquarters (Ch); experiment: as above; assay type: in vivo; set-up: scale not given here; conditions: upland field foliage treatment (corn test), dose 1.6 g ai/10a, 14th day after treatment
Protocol: as §3, §4

[14] = system: slender amaranth (Am); experiment: as above; assay type: in vivo; set-up: scale not given here; conditions: upland field foliage treatment (corn test), dose 1.6 g ai/10a, 14th day after treatment
Protocol: as §3, §4

[15] = system: barnyardgrass (Ec); experiment: Test Example 2: herbicidal effects by upland field soil treatment; assay type: in vivo; conditions: 100 g of the active ingredient per 10 ares, 21st day after the application, index 0-5 of Table 47;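 also: grade of growth control; 5 = at least 90%; 4 = 70 to 90%; 3 = 50 to 70%; 2 = 30 to 50%; 1 = 10 to 30%; 0 = under 10%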
Text: (§5) (Test on Herbicidal Effects by Upland Field Soil Treatment)

[16] = system: Digitaria ciliaris (Di); experiment: as above; assay type: in vivo; conditions: 100 g of the active ingredient per 10 ares, 21st day after the application, index 0-5 of Table 47;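 also: grade of growth control; 5 = at least 90%; 4 = 70 to 90%; 3 = 50 to 70%; 2 = 30 to 50%; 1 = 10 to 30%; 0 = under 10%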
Text: as §5

[17] = system: rice flatsedge (Ci); experiment: as above; assay type: in vivo; conditions: 100 g of the active ingredient per 10 ares, 21st day after the application, index 0-5 of Table 47
Text: as §5

[18] = system: pale smartweed (Po); experiment: as above; assay type: in vivo; conditions: 100 g of the active ingredient per 10 ares, 21st day after the application, index 0-5 of Table 47
Text: as §5

[19] = system: common lambsquarters (Ch); experiment: as above; assay type: in vivo; conditions: 100 g of the active ingredient per 10 ares, 21st day after the application, index 0-5 of Table 47
Text: as §5

[20] = system: slender amaranth (Am); experiment: as above; assay type: in vivo; conditions: 100 g of the active ingredient per 10 ares, 21st day after the application, index 0-5 of Table 47
Text: as §5

[21] = system: green foxtail (Se); experiment: Test Example 4: crop plant selectivity by upland field soil treatment (cotton), herbicidal effects; assay type: in vivo; set-up: scale not given here; conditions: dose 6.3 g ai/10 a, evaluated 21st day after application
Outline: (§6)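 Cotton and weeds (incl. China jute, pale smartweed, slender amaranth) sown in sand-filled pots and covered with soil, then soil-treated. Grown in greenhouse; herbicidal effect and cotton phytotoxicity scored on day 21 after application against a rating standard.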

[22] = system: pale smartweed (Po); experiment: as above; assay type: in vivo; set-up: scale not given here; conditions: dose 6.3 g ai/10 a, evaluated 21st day after application
Outline: as §6

[23] = system: China jute (Ab); experiment: as above; assay type: in vivo; set-up: scale not given here; conditions: dose 6.3 g ai/10 a, evaluated 21st day after application
Outline: as §6

[24] = system: common lambsquarters (Ch); experiment: as above; assay type: in vivo; set-up: scale not given here; conditions: dose 6.3 g ai/10 a, evaluated 21st day after application
Outline: as §6

[25] = system: slender amaranth (Am); experiment: as above; assay type: in vivo; set-up: scale not given here; conditions: dose 6.3 g ai/10 a, evaluated 21st day after application
Outline: as §6

[26] = system: green foxtail (Se); experiment: Test Example 5: crop plant selectivity by upland field soil treatment (wheat), herbicidal effects; assay type: in vivo; set-up: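 grade of growth control; 5 = at least 90%; 4 = 70 to 90%; 3 = 50 to 70%; 2 = 30 to 50%; 1 = 10 to 30%; 0 = under 10%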; conditions: dose 6.3 g ai/10a, 21st day after application
Outline: (§7)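 Pots of sand sown with wheat and weeds (incl. Digitaria ciliaris, green foxtail, slender amaranth), seeds covered with soil, soil-applied treatment. Grown in greenhouse; herbicidal effect and crop phytotoxicity scored visually on day 21 after application against a rating scale.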

[27] = system: pale smartweed (Po); experiment: as above; assay type: in vivo; set-up: scale not given here; conditions: dose 6.3 g ai/10a, 21st day after application
Outline: as §7

[28] = system: China jute (Ab); experiment: as above; assay type: in vivo; set-up: scale not given here; conditions: dose 6.3 g ai/10a, 21st day after application
Outline: as §7

[29] = system: common lambsquarters (Ch); experiment: as above; assay type: in vivo; set-up: scale not given here; conditions: dose 6.3 g ai/10a, 21st day after application
Outline: as §7

[30] = system: slender amaranth (Am); experiment: as above; assay type: in vivo; set-up: scale not given here; conditions: dose 6.3 g ai/10a, 21st day after application
Outline: as §7

[31] = system: corn (Ze); experiment: Test Example 7: crop plant selectivity by upland field soil treatment (corn), phytotoxicity; assay type: in vivo; set-up: scale not given here; conditions: dose 6.3 g ai/10a, 21st day after application
Outline: (§8)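 Corn and weeds (green foxtail, pale smartweed, slender amaranth, common lambsquarters, China jute) sown in sand-filled pots, covered with soil and treated by soil application. Grown in a greenhouse; herbicidal effect and crop phytotoxicity scored on day 21 after application using a fixed rating scale.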

[32] = system: wheat (Tr); experiment: Test Example 5: crop plant selectivity by upland field soil treatment (wheat), phytotoxicity; assay type: in vivo; set-up: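 grade of crop injury; 5 = at least 90%; 4 = 70 to 90%; 3 = 50 to 70%; 2 = 30 to 50%; 1 = 10 to 30%; 0 = under 10%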; conditions: dose 6.3 g ai/10a, 21st day after application
Outline: as §7

[33] = system: cotton (Go); experiment: Test Example 4: crop plant selectivity by upland field soil treatment (cotton), phytotoxicity; assay type: in vivo; set-up: scale not given here; conditions: dose 6.3 g ai/10 a, evaluated 21st day after application
Outline: as §6

[34] = system: soybean (Gl); experiment: Test Example 6: crop plant selectivity by upland field soil treatment (soybean), phytotoxicity; assay type: in vivo; set-up: scale not given here; conditions: dose 6.3 g ai/10a, 21st day after application
Outline: (§9)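 Seeds are sown in sand and covered with soil. The soil is treated with test compound. Pots are kept in a greenhouse. Weed control and soybean damage are rated visually 21 days after application.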

[35] = system: green foxtail (Se); experiment: Test Example 7: crop plant selectivity by upland field soil treatment (corn), herbicidal effects; assay type: in vivo; set-up: scale not given here; conditions: dose 6.3 g ai/10a, 21st day after application
Outline: as §8

[36] = system: pale smartweed (Po); experiment: as above; assay type: in vivo; set-up: scale not given here; conditions: dose 6.3 g ai/10a, 21st day after application
Outline: as §8

[37] = system: China jute (Ab); experiment: as above; assay type: in vivo; set-up: scale not given here; conditions: dose 6.3 g ai/10a, 21st day after application
Outline: as §8

[38] = system: common lambsquarters (Ch); experiment: as above; assay type: in vivo; set-up: scale not given here; conditions: dose 6.3 g ai/10a, 21st day after application
Outline: as §8

[39] = system: slender amaranth (Am); experiment: as above; assay type: in vivo; set-up: scale not given here; conditions: dose 6.3 g ai/10a, 21st day after application
Outline: as §8

[40] = system: green foxtail (Se); experiment: Test Example 6: crop plant selectivity by upland field soil treatment (soybean), herbicidal effects; assay type: in vivo; set-up: scale not given here; conditions: dose 6.3 g ai/10a, 21st day after application
Outline: as §9

[41] = system: pale smartweed (Po); experiment: as above; assay type: in vivo; set-up: scale not given here; conditions: dose 6.3 g ai/10a, 21st day after application
Outline: as §9

[42] = system: China jute (Ab); experiment: as above; assay type: in vivo; set-up: scale not given here; conditions: dose 6.3 g ai/10a, 21st day after application
Outline: as §9

[43] = system: common lambsquarters (Ch); experiment: as above; assay type: in vivo; set-up: scale not given here; conditions: dose 6.3 g ai/10a, 21st day after application
Outline: as §9

[44] = system: slender amaranth (Am); experiment: as above; assay type: in vivo; set-up: scale not given here; conditions: dose 6.3 g ai/10a, 21st day after application
Outline: as §9

CC(C)OC(=O)c1cc(-c2ccc(C(F)(F)F)n(C)c2=O)c(F)cc1Cl [Compound No. 1-66, isopropyl 5-(1-methyl-6-trifluoromethyl-2(1H)-pyridon-3-yl)-2-chloro-4-fluorobenzoate]
Herbicidal effects Ec [1]: 5
Herbicidal effects Di [2]: 5
Herbicidal effects Ci [3]: 5
Herbicidal effects Po [4]: 5
Herbicidal effects Ch [5]: 5
Herbicidal effects Am [6]: 5
Herbicidal effects Mo [7]: 5
Herbicidal effects Ec [8]: 5
Herbicidal effects Sc [9]: 5
Phytotoxicity Ze [10]: 2
Herbicidal effects Po [11]: 5
Herbicidal effects Ab [12]: 5
Herbicidal effects Ch [13]: 5
Herbicidal effects Am [14]: 5
Herbicidal effects Ec [15]: 5
Herbicidal effects Di [16]: 5
Herbicidal effects Ci [17]: 5
Herbicidal effects Po [18]: 5
Herbicidal effects Ch [19]: 5
Herbicidal effects Am [20]: 5

CSc1cc(-c2ccc(C(F)(F)F)n(C)c2=O)c(F)cc1Cl [Compound No. 1-87, 3-(4-chloro-2-fluoro-5-methylthiophenyl)-1-methyl-6-trifluoromethyl-2(1H)-pyridone]
Herbicidal effects Se [21]: 5
Herbicidal effects Po [22]: 5
Herbicidal effects Ab [23]: 5
Herbicidal effects Ch [24]: 5
Herbicidal effects Am [25]: 5
Herbicidal effects Se [26]: 5
Herbicidal effects Po [27]: 5
Herbicidal effects Ab [28]: 5
Herbicidal effects Ch [29]: 5
Herbicidal effects Am [30]: 5
Herbicidal effects Ec [1]: 5
Herbicidal effects Di [2]: 5
Herbicidal effects Ci [3]: 5
Herbicidal effects Po [4]: 5
Herbicidal effects Ch [5]: 5
Herbicidal effects Am [6]: 5
Phytotoxicity Ze [31]: 1
Herbicidal effects Mo [7]: 5
Herbicidal effects Ec [8]: 5
Herbicidal effects Sc [9]: 5
Phytotoxicity Tr [32]: 1
Phytotoxicity Go [33]: 1
Phytotoxicity Gl [34]: 1
Herbicidal effects Se [35]: 5
Herbicidal effects Po [36]: 5
Herbicidal effects Ab [37]: 5
Herbicidal effects Ch [38]: 5
Herbicidal effects Am [39]: 5
Herbicidal effects Se [40]: 5
Herbicidal effects Po [41]: 5
Herbicidal effects Ab [42]: 5
Herbicidal effects Ch [43]: 5
Herbicidal effects Am [44]: 5
Herbicidal effects Ec [15]: 5
Herbicidal effects Di [16]: 5
Herbicidal effects Ci [17]: 5
Herbicidal effects Po [18]: 5
Herbicidal effects Ch [19]: 5
Herbicidal effects Am [20]: 5
